Tested on: SARS-CoV-2 (USA-WA1/2020) in Calu-3 cells
Type: cell-based
Conditions: Calu-3, 48 h; for dsRNA signal, AU High: high dose (10 µM); for dsRNA signal, AU Low: low dose (100 nM)

CN1CCN(c2ccc(Nc3cc(-c4cccc(-n5ccc6cc(C7CC7)cc(F)c6c5=O)c4CO)cn(C)c3=O)nc2)CC1 [RN486]
dsRNA signal, AU High: 3432.0 AU
dsRNA signal, AU Low: 25024.9 AU

C=CC(=O)Nc1cccc(Nc2nc(Nc3ccc(N4CCN(C(C)=O)CC4)cc3OC)ncc2C(F)(F)F)c1 [CO-1686 (AVL-301)]
dsRNA signal, AU High: 16434.5 AU
dsRNA signal, AU Low: 26200.1 AU

Oc1cccc(-c2nc(N3CCOCC3)c3oc4ncccc4c3n2)c1 [PI-103]
dsRNA signal, AU High: 0.0 AU
dsRNA signal, AU Low: 40731.1 AU

Cc1cccc(-c2[nH]c(CNc3ccccc3F)nc2-c2ccc3ncnn3c2)n1 [EW-7197]
dsRNA signal, AU High: 168.7 AU
dsRNA signal, AU Low: 7205.0 AU

O=C1Nc2ccc(I)cc2/C1=C/c1cc(Br)c(O)c(Br)c1 [GW5074]
dsRNA signal, AU High: 14683.4 AU
dsRNA signal, AU Low: 20240.6 AU

CCC(=O)N1CCN(c2ccc(-n3c(=O)ccc4cnc5ccc(-c6cnc7ccccc7c6)cc5c43)cc2C(F)(F)F)CC1 [Torin 1]
dsRNA signal, AU High: 1083.7 AU
dsRNA signal, AU Low: 14896.3 AU

Cc1[nH]c(/C=C2\C(=O)Nc3ccc(S(=O)(=O)Cc4c(Cl)cccc4Cl)cc32)c(C)c1C(=O)N1CCC[C@@H]1CN1CCCC1 [PHA-665752]
dsRNA signal, AU High: 34815.2 AU
dsRNA signal, AU Low: 11571.8 AU

CCC(=O)Nc1cccc(Oc2nc(Nc3ccc(N4CCN(C)CC4)cc3OC)ncc2Cl)c1 [WZ4003]
dsRNA signal, AU High: 30589.4 AU
dsRNA signal, AU Low: 38446.0 AU

COc1cc2ncnc(Nc3ccc(F)c(Cl)c3)c2cc1NC(=O)/C=C/CN1CCCCC1 [Dacomitinib (PF299804, PF299)]
dsRNA signal, AU High: 0.0 AU
dsRNA signal, AU Low: 7030.9 AU

CN1CC[C@H](c2c(O)cc(O)c3c(=O)cc(-c4ccccc4Cl)oc23)[C@H](O)C1 [Flavopiridol]
dsRNA signal, AU High: 411.3 AU
dsRNA signal, AU Low: 2633.8 AU

CC(C)(C)Cn1c(N)nc2ccc(-c3[nH]c(C(C)(C)C)nc3-c3ccc(F)cc3)nc21 [LY2228820]
dsRNA signal, AU High: 88.7 AU
dsRNA signal, AU Low: 5927.3 AU

CCN(CC)CC(=O)Nc1c(C)cccc1C [Lidocaine]
dsRNA signal, AU High: 26152.6 AU
dsRNA signal, AU Low: 999.3 AU

CN1CCN(c2ccc3nc(-c4c(N)c5c(F)cccc5[nH]c4=O)[nH]c3c2)CC1 [Dovitinib (TKI-258, CHIR-258)]
dsRNA signal, AU High: 15765.0 AU
dsRNA signal, AU Low: 183.2 AU

CO[C@H]1C[C@@H]2CC[C@@H](C)[C@@](O)(O2)C(=O)C(=O)N2CCCC[C@H]2C(=O)O[C@H]([C@H](C)C[C@@H]2CC[C@@H](O)[C@H](OC)C2)CC(=O)[C@H](C)/C=C(\C)[C@@H](O)[C@@H](OC)C(=O)[C@H](C)C[C@H](C)/C=C/C=C/C=C/1C [Rapamycin (Sirolimus)]
dsRNA signal, AU High: 1745.1 AU
dsRNA signal, AU Low: 58744.6 AU

Oc1ccc(Nc2nc(-c3ccc(Cl)cc3)cs2)cc1 [SKI II]
dsRNA signal, AU High: 31334.0 AU
dsRNA signal, AU Low: 21341.0 AU

COc1cc2ncc(-c3ccccc3)nc2cc1OC [Tyrphostin AG 1296]
dsRNA signal, AU High: 2647.7 AU
dsRNA signal, AU Low: 18881.3 AU

OCCn1cc(-c2cnc3nnn(Cc4ccc5ncccc5c4)c3n2)cn1 [PF-04217903]
dsRNA signal, AU High: 9610.7 AU
dsRNA signal, AU Low: 2049.9 AU

CCn1c(=O)c(-c2ccc(-c3cncs3)cc2Cl)cc2cnc(Nc3ccc(N4CCN(C)CC4)cc3)nc21 [FRAX597]
dsRNA signal, AU High: 1538.8 AU
dsRNA signal, AU Low: 50796.9 AU

6H05
dsRNA signal, AU High: 9210.5 AU
dsRNA signal, AU Low: 25435.6 AU

Cn1cc(C2=C(c3cccc(N)c3)C(=O)NC2=O)c2ccccc21 [CP21R7]
dsRNA signal, AU High: 5189.9 AU
dsRNA signal, AU Low: 2975.5 AU

KN-93
dsRNA signal, AU High: 14156.8 AU
dsRNA signal, AU Low: 6603.8 AU

CC(C)=CCC[C@](C)(O[C@@H]1O[C@H](CO)[C@@H](O)[C@H](O)[C@H]1O)[C@H]1CC[C@]2(C)[C@@H]1[C@H](O)C[C@@H]1[C@@]3(C)CC[C@H](O)C(C)(C)[C@@H]3[C@@H](O[C@@H]3O[C@H](CO)[C@@H](O)[C@H](O)[C@H]3O[C@@H]3O[C@@H](C)[C@H](O)[C@@H](O)[C@H]3O)C[C@]12C [Ginsenoside Re]
dsRNA signal, AU High: 10054.1 AU
dsRNA signal, AU Low: 65920.2 AU

O=C(Nc1nc2cccc(-c3ccc(CN4CCS(=O)(=O)CC4)cc3)n2n1)C1CC1 [GLPG0634]
dsRNA signal, AU High: 36.1 AU
dsRNA signal, AU Low: 2690.2 AU

N#CC1(c2ccc(NC(=O)c3cccnc3NCc3ccncc3)cc2)CCCC1 [Apatinib]
dsRNA signal, AU High: 181.1 AU
dsRNA signal, AU Low: 36614.7 AU

C[n+]1cc2c3c(ccc2c2ccc4cc5c(cc4c21)OCO5)OCO3 [Sanguinarine]
dsRNA signal, AU High: 0.0 AU
dsRNA signal, AU Low: 895.9 AU

Nc1nc(N)c(N=O)c(OCC2CCCCC2)n1 [Nu 6027]
dsRNA signal, AU High: 2596.9 AU
dsRNA signal, AU Low: 10731.2 AU

C=CC(=O)Nc1cccc(Oc2nc(Nc3ccc(N4CCN(C)CC4)cc3)ncc2Cl)c1 [WZ3146]
dsRNA signal, AU High: 23148.6 AU
dsRNA signal, AU Low: 16337.5 AU

O=C(O)c1ccccc1Nc1cccc(C(F)(F)F)c1 [Flufenamic acid]
dsRNA signal, AU High: 29762.4 AU
dsRNA signal, AU Low: 15182.6 AU

O=c1cc(-c2cccc3c2Sc2ccccc2S3)oc(N2CCOCC2)c1 [KU 55933]
dsRNA signal, AU High: 33867.0 AU
dsRNA signal, AU Low: 52307.6 AU

CCCCOc1cc(C(=O)NCCN(CC)CC)c2ccccc2n1.Cl [Dibucaine (Cinchocaine) HCl]
dsRNA signal, AU High: 9319.1 AU
dsRNA signal, AU Low: 11778.5 AU

O=C(Nc1ccc2[nH]nc(-c3ccncc3)c2c1)[C@@H]1CCN(CC(=O)N2CCN(c3ccc(-c4ncccn4)cc3)CC2)C1 [SCH772984]
dsRNA signal, AU High: 21169.8 AU
dsRNA signal, AU Low: 17905.7 AU

IC-87114
dsRNA signal, AU High: 0.0 AU
dsRNA signal, AU Low: 60540.6 AU

C[C@@H](Nc1cc(F)cc(F)c1)c1cc(C(=O)N(C)C)cc2c(=O)cc(N3CCOCC3)oc12 [AZD8186]
dsRNA signal, AU High: 4769.3 AU
dsRNA signal, AU Low: 35908.0 AU

CC(C)[C@H](CO)Nc1nc(Nc2ccc(C(=O)O)c(Cl)c2)c2ncn(C(C)C)c2n1 [Purvalanol B]
dsRNA signal, AU High: 4137.6 AU
dsRNA signal, AU Low: 7805.6 AU

Cn1cc(-c2ccc3nnc(C(F)(F)c4ccc5ncccc5c4)n3n2)cn1 [JNJ-38877605]
dsRNA signal, AU High: 9345.0 AU
dsRNA signal, AU Low: 32468.4 AU

CCCNC(=O)c1cn2ncnc(Nc3cc(C(=O)NC4CC4)ccc3C)c2c1C.Cl [BMS-582949 hydrochloride]
dsRNA signal, AU High: 7441.1 AU
dsRNA signal, AU Low: 64364.9 AU

C[C@@H]1CCN(C(=O)CC#N)C[C@@H]1N(C)c1ncnc2[nH]ccc12 [Tofacitinib (CP-690550,Tasocitinib)]
dsRNA signal, AU High: 6571.2 AU
dsRNA signal, AU Low: 4801.5 AU

COCCNCc1ccc(-c2cc3nccc(Oc4ccc(NC(=S)NC(=O)Cc5ccc(F)cc5)cc4F)c3s2)nc1 [MGCD-265]
dsRNA signal, AU High: 4249.4 AU
dsRNA signal, AU Low: 42710.5 AU

COc1ccc(Cl)c(Nc2nc3ccccc3nc2NS(=O)(=O)c2cccc(NC(=O)C(C)(C)N)c2)c1 [XL147]
dsRNA signal, AU High: 6847.8 AU
dsRNA signal, AU Low: 47539.1 AU

Cn1nccc1Nc1nccc(-c2cc3c(s2)C(C)(C)N(CCN2CCOCC2)C3=O)n1 [LY3214996]
dsRNA signal, AU High: 4594.5 AU
dsRNA signal, AU Low: 22927.9 AU

CC(C)n1nc(-c2cc3cc(O)ccc3[nH]2)c2c(N)ncnc21 [PP242]
dsRNA signal, AU High: 7321.2 AU
dsRNA signal, AU Low: 32614.7 AU

Cc1ccc(NC(=O)Nc2cc(C(F)(F)F)ccc2F)cc1Nc1ccc2c(c1)NC(=O)/C2=C\c1ccc[nH]1 [GNF-5837]
dsRNA signal, AU High: 2750.0 AU
dsRNA signal, AU Low: 23319.5 AU

CC(C)c1ccc2oc3nc(N)c(C(=O)O)cc3c(=O)c2c1 [Amlexanox]
dsRNA signal, AU High: 17956.6 AU
dsRNA signal, AU Low: 28672.3 AU

O=C(O)C[C@H](O)C[C@H](O)/C=C/c1c(C2CC2)nc2ccccc2c1-c1ccc(F)cc1 [Pitavastatin]
dsRNA signal, AU High: 8150.8 AU
dsRNA signal, AU Low: 10215.5 AU

CCS(=O)(=O)N1CCN(c2ccc(Nc3ncc(C(N)=O)c(NC4CC4)n3)cc2)CC1 [Cerdulatinib (PRT062070)]
dsRNA signal, AU High: 60131.0 AU
dsRNA signal, AU Low: 21245.1 AU

O=C1NC(=O)C(c2cnc3ccccn23)=C1c1cn2c3c(cc(F)cc13)CN(C(=O)N1CCCCC1)CC2 [LY2090314]
dsRNA signal, AU High: 16169.3 AU
dsRNA signal, AU Low: 7523.7 AU

C#Cc1cccc(Nc2ncnc3cc4c(cc23)OCCOCCOCCO4)c1 [Icotinib]
dsRNA signal, AU High: 11365.1 AU
dsRNA signal, AU Low: 24561.1 AU

O=C(Nc1nc2ccccc2n1CCN1CCOCC1)c1cccc([N+](=O)[O-])c1 [IRAK-1-4 Inhibitor I]
dsRNA signal, AU High: 21347.7 AU
dsRNA signal, AU Low: 22363.0 AU

O=c1cc(N2CCOCC2)oc2c(-c3ccccc3)cccc12 [LY 294002]
dsRNA signal, AU High: 11164.3 AU
dsRNA signal, AU Low: 43579.3 AU

Cn1cnc2c(F)c(Nc3ccc(Br)cc3F)c(C(=O)NOCCO)cc21 [MEK162 (ARRY-162, ARRY-438162)]
dsRNA signal, AU High: 32104.0 AU
dsRNA signal, AU Low: 54835.5 AU

Cc1cc(CS(=O)(=O)c2ccccc2)cc(OCc2ccc(CN3CCC[C@@H]3CO)cc2)c1 [PF-543]
dsRNA signal, AU High: 28127.6 AU
dsRNA signal, AU Low: 66805.4 AU

Clc1ccc(C2(c3ccc(-c4cn[nH]c4)cc3)CCNCC2)cc1 [AT7867]
dsRNA signal, AU High: 150.0 AU
dsRNA signal, AU Low: 6554.9 AU

CN(C)C/C=C/C(=O)Nc1cc2c(Nc3ccc(F)c(Cl)c3)ncnc2cc1O[C@H]1CCOC1 [Afatinib (BIBW2992)]
dsRNA signal, AU High: 1924.8 AU
dsRNA signal, AU Low: 12314.4 AU

CC(C)(C)c1cc(/C=C(\C#N)C(N)=S)cc(C(C)(C)C)c1O [Tyrphostin AG 879]
dsRNA signal, AU High: 54.0 AU
dsRNA signal, AU Low: 6760.3 AU

CC(C)[C@H](CO)Nc1nc(Nc2cccc(Cl)c2)c2ncn(C(C)C)c2n1 [Purvalanol A]
dsRNA signal, AU High: 51443.1 AU
dsRNA signal, AU Low: 865.0 AU

Source: PMC12142043, “Cell-based high-content approach for SARS-CoV-2 neutralization identifies unique monoclonal antibodies and PI3K pathway inhibitors” (Frontiers in Cell and Developmental Biology, 2025)
